According to patent US11819476B2, “Rapamycin analogs and uses thereof” (Janssen Pharmaceutica NV, priority 2019, dated 2023):
“Also recorded” adds a separate entry of the source.

Tests used:
Assay type in all cases: cell-based
[1] = system: mTORC1 over mTORC2; experiment: mTORC1 selectivity over mTORC2 at 24 hrs (pS6K1 and pAKT assays); conditions: for mTORC1 selective @ 24 hrs: selectivity for mTORC1 over mTORC2 at 24 hrs
Procedure: (§1) Example 76: Western Blot Based pS6K1 and pAKT Assay at 24 and 48 Hour Timepoints
(§2) Assay Protocol: • 1. Seed six well plate with 500,000 PC3 cells per well and incubate for […]. • 2. Add compounds into the cell plate. Incubate for 24 to 48 hours. • 4. Plate is placed on ice and the media is removed via aspiration. The wells are washed with 1 mL of 1×PBS and then fully aspirated. • 5. 110 μL of 1% Triton Lysis Buffer is added and each well is scraped vigorously. • 6. Cell homogenates are transferred to 1.5 mL eppendorf tubes on ice and spun down at 4° C. for 10 minutes at 10,000 rpm. • 7. Protein concentration of resulting cell lysates were quantified utilizing a Bradford assay and the samples run analyzed via Western blot on 4-12% Bis/Tris gels with 1×MES buffer. • 8. The gels were transferred onto membranes at 50V for 100 minutes, blocked with Odyssey Blocking buffer for 30 minutes then incubated overnight with primary antibody (pS6K1 T389 Rabbit or pAkt S473 Rabbit) overnight at 4° C. on a rotator. • 9. The membranes were washed 3× with TBS-T with a 5 minute incubation between each wash then incubated with secondary antibody (LiCor IRDye 800 Donkey Anti Rabbit) for at least 30 minutes. • 10. The membranes were washed 3× with TBS-T with a 5 minute incubation between each wash. • 11. The gels were then incubated for 5 minutes with PBS at room temperature then imaged using a Li-Cor.
The compound numbers correspond to the compound numbers in Table 1.
Compounds that are not selective at the 24 hrs mark are indicated by “NO” in the “mTORC1 selective @ 24 hrs” column of Table 4. Compounds that partially retain selectivity for mTORC1 inhibition over mTORC2 are indicated by “Partial” in the “mTORC1 selective @ 24 hrs” column of Table 4.

[2] = system: pS6K1 T389 in PC3 cells (mTORC1 pathway); experiment: Western blot based pS6K1 assay (mTORC1 pathway); conditions: 24 hours
Procedure: as §1, §2
PC3 cells were treated with everolimus (0.1 μM, 0.01 μM, and 0.001 μM) or I-9 ([…], 0.1 μM, 0.01 μM, and 0.001 μM) for 24 hours.
The methods employed were substantially similar to those described above. Compounds were evaluated in PC3 cells. Additional cell lines that may be used include Jurkat cells, wild-type mouse embryotic fibroblast (MEF) cells, tuberous sclerosis 2 (TSC2) negative (TSC−/−) MEF cells, and tuberous sclerosis 2 (TSC2) positive (TSC+/+) MEF cells. Cells are incubated with compounds of the present invention for various time periods (e.g., 5 minutes, 15 minutes, 30 minutes, 90 minutes, 24 hours, or 48 hours), and evaluated according to known methodologies, such as those herein described.

[3] = system: pAkt S473 in PC3 cells (mTORC2); experiment: Western blot based pAKT assay (mTORC2 pathway); conditions: 24 hours
Procedure: as §1
as §2, with “The membranes were washed 3× with TBS-T with a 5 minute incubation between each wash then incubated with secondary antibody (LiCor IRDye 800 Donkey Anti Rabbit) for at least 30 minutes. • 10. The membranes were washed 3× with TBS-T with a 5 minute incubation between each wash. • 11. The gels were then incubated for 5 minutes with PBS at room temperature then imaged using a Li-Cor.” left out
The methods employed were substantially similar to those described above. Compounds were evaluated in PC3 cells. […] Cells are incubated with compounds of the present invention for various time periods (e.g., 5 minutes, 15 minutes, 30 minutes, 90 minutes, 24 hours, or 48 hours), and evaluated according to known methodologies, such as those herein described.

[4] = system: pS6K1 in MCF7; experiment: AlphaLISA Ultra pS6K1 Assay; conditions: Homo sapiens, 1.5 h; MCF7 cells, 90 min incubation
Procedure: Example 74: AlphaLISA Ultra pS6K1 Assay
Assay Protocol: • 1. Seed MCF-7 cells in Corning 3701 plate and incubate for 20˜24 hour. 12,000˜16,000 cells will be seeded in 36 μL medium per well. • 2. Change the culture medium with fresh medium and incubate for another 2 hours. • 3. Add 12 μL (4×) compounds into the cell plate by HAMILTON. Final DMSO concentration is 0.5%. Incubate for 90 minutes. • 4. Aspirate 38 μL by HAMILTON, 10 μL rest per well. • 5. Add 10 μL 2× lysis buffer using HAMILTON; total volume in wells is 20 μL. Allow cells to shake for 30 min. Cover plate by plastic foil and store plate at −80° C. up to analysis. • 6. Thaw cell lysate at RT and transfer 10 μL lysate to assay plate (Optiplate-384). • 7. Add 5 μL acceptor beads into assay plate and incubation for 2 hours • 8. Add 5 μL donor beads and incubation for 2 hours • 9. Count the plate by EnSpire Multimode Plate Reader

SMILES	selectivity over mTORC2 as measured by the impact of pAKT ([1]; at 24 hours, depends on size of C-7 group)	inhibition of the mTORC1 pathway (pS6K1, Western blot) [2]	inhibition of mTORC2 (Akt phosphorylation, pAkt, Western blot) [3]	IC50 [4] [nM]	mTORC1 selective @ 24 hrs [1]
CO[C@@H]1C[C@H](C[C@@H](C)[C@@H]2CC(=O)[C@H](C)/C=C(\C)[C@@H](O)[C@@H](OC)C(=O)[C@H](C)C[C@H](C)/C=C/C=C/C=C(\C)C(OCCCCS(N)(=O)=O)C[C@@H]3CC[C@@H](C)[C@@](O)(O3)C(=O)C(=O)N3CCCC[C@H]3C(=O)O2)CC[C@H]1OCCO (stereo partly shown) [Example I-19]	marked selectivity	–	–	–	–
CO[C@H]1C[C@@H]2CC[C@@H](C)[C@@](O)(O2)C(=O)C(=O)N2CCCC[C@H]2C(=O)O[C@H]([C@H](C)C[C@@H]2CC[C@@H](OCCO)[C@H](OC)C2)CC(=O)[C@H](C)/C=C(\C)[C@@H](O)[C@@H](OC)C(=O)[C@H](C)C[C@H](C)/C=C/C=C/C=C/1C [everolimus, reference compound]	–	reduction in pS6K1; also recorded: strong inhibition	inhibition of S6K1 phosphorylation (S^473)	–	–
CO[C@@H]1C[C@H](C[C@@H](C)[C@@H]2CC(=O)[C@H](C)/C=C(\C)[C@@H](O)[C@@H](OC)C(=O)[C@H](C)C[C@H](C)/C=C/C=C/C=C(\C)[C@@H](OCCCO)C[C@@H]3CC[C@@H](C)[C@@](O)(O3)C(=O)C(=O)N3CCCC[C@H]3C(=O)O2)CC[C@H]1O [Example I-36, (21E,23E,25E,26E,31R,32S,33R,34R,36S,38S,40S,41S,42S,43R,52R)-42,52-dihydroxy-41-[(1R)-2-[(1S,3R,4R)-4-hydroxy-3-methoxy-cyclohexyl]-1-methyl-ethyl]-40-(3-hydroxypropoxy)-43-methoxy-31,32,33,34,44,45-hexamethyl-63,64-dioxa-53-azatricyclohexatriaconta-21,23,25(44),26(45)-tetraene-46,47,48,49,50-pentone]	–	–	–	0.1 to 1	Yes
CO[C@@H]1C[C@H](C[C@@H](C)[C@@H]2CC(=O)[C@H](C)/C=C(\C)[C@@H](O)[C@@H](OC)C(=O)[C@H](C)C[C@H](C)/C=C/C=C/C=C(\C)[C@@H](OCCCCCO)C[C@@H]3CC[C@@H](C)[C@@](O)(O3)C(=O)C(=O)N3CCCC[C@H]3C(=O)O2)CC[C@H]1O [Example I-35, (21E,23E,25E,26E,33R,34S,35R,36R,38S,40S,42S,43S,44R,45R,54R)-44,54-dihydroxy-43-[(1R)-2-[(1S,3R,4R)-4-hydroxy-3-methoxy-cyclohexyl]-1-methyl-ethyl]-42-(5-hydroxypentoxy)-45-methoxy-33,34,35,36,46,47-hexamethyl-65,66-dioxa-55-azatricyclohexatriaconta-21,23,25(46),26(47)-tetraene-48,49,50,51,52-pentone]	–	–	–	0.1 to 1	Yes
CO[C@@H]1C[C@H](C[C@@H](C)[C@@H]2CC(=O)[C@H](C)/C=C(\C)[C@@H](O)[C@@H](OC)C(=O)[C@H](C)C[C@H](C)/C=C/C=C/C=C(\C)[C@@H](OCCC3CCNC3=O)C[C@@H]3CC[C@@H](C)[C@@](O)(O3)C(=O)C(=O)N3CCCC[C@H]3C(=O)O2)CC[C@H]1OCCO (stereo partly drawn) [Example I-3, (23E,25E,27E,28E,34R,35S,36R,37R,39S,42S,44S,45S,46R,47R,57R)-46,57-dihydroxy-45-[(1R)-2-[(1S,3R,4R)-4-(2-hydroxyethoxy)-3-methoxy-cyclohexyl]-1-methyl-ethyl]-47-methoxy-34,35,36,37,48,49-hexamethyl-44-[2-(2-oxopyrrolidin-3-yl)ethoxy]-69,70-dioxa-59-azatricyclohexatriaconta-23,25,27(48),28(49)-tetraene-50,51,53,54,55-pentone]	–	strong inhibition	–	–	–
CO[C@@H]1C[C@H](C[C@@H](C)[C@@H]2CC(=O)[C@H](C)/C=C(\C)[C@@H](O)[C@@H](OC)C(=O)[C@H](C)C[C@H](C)/C=C/C=C/C=C(\C)[C@@H](OCCOc3ccccc3)C[C@@H]3CC[C@@H](C)[C@@](O)(O3)C(=O)C(=O)N3CCCC[C@H]3C(=O)O2)CC[C@H]1OCCO [Example I-7, (26E,28E,30E,31E,38R,39S,40R,41R,43S,45S,47S,48S,49R,50R,59R)-49,59-dihydroxy-48-[(1R)-2-[(1S,3R,4R)-4-(2-hydroxyethoxy)-3-methoxy-cyclohexyl]-1-methyl-ethyl]-50-methoxy-38,39,40,41,51,52-hexamethyl-47-(2-phenoxyethoxy)-69,70-dioxa-60-azatricyclohexatriaconta-26,28,30(51),31(52)-tetraene-53,54,55,56,57-pentone]	–	–	–	1 to 10	Yes
CO[C@@H]1C[C@H](C[C@@H](C)[C@@H]2CC(=O)[C@H](C)/C=C(\C)[C@@H](O)[C@@H](OC)C(=O)[C@H](C)C[C@H](C)/C=C/C=C/C=C(\C)[C@@H](OCCCC3CCNC3=O)C[C@@H]3CC[C@@H](C)[C@@](O)(O3)C(=O)C(=O)N3CCCC[C@H]3C(=O)O2)CC[C@H]1OCCO (stereo partly drawn) [Example I-15, (23E,25E,27E,28E,35R,36S,37R,38R,40S,43S,45S,46S,47R,48R,58R)-47,58-dihydroxy-46-[(1R)-2-[(1S,3R,4R)-4-(2-hydroxyethoxy)-3-methoxy-cyclohexyl]-1-methyl-ethyl]-48-methoxy-35,36,37,38,49,50-hexamethyl-45-[3-(2-oxopyrrolidin-3-yl)propoxy]-70,71-dioxa-60-azatricyclohexatriaconta-23,25,27(49),28(50)-tetraene-51,52,54,55,56-pentone]	–	strong inhibition	–	–	–
CO[C@@H]1C[C@H](C[C@@H](C)[C@@H]2CC(=O)[C@H](C)/C=C(\C)[C@@H](O)[C@@H](OC)C(=O)[C@H](C)C[C@H](C)/C=C/C=C/C=C(\C)[C@@H](OCCOC3COC3)C[C@@H]3CC[C@@H](C)[C@@](O)(O3)C(=O)C(=O)N3CCCC[C@H]3C(=O)O2)CC[C@H]1OCCO [Example I-9, (23E,25E,27E,28E,34R,35S,36R,37R,39S,41S,43S,44S,46R,47R,56R)-46,56-dihydroxy-44-[(1R)-2-[(1S,3R,4R)-4-(2-hydroxyethoxy)-3-methoxy-cyclohexyl]-1-methyl-ethyl]-47-methoxy-34,35,36,37,48,49-hexamethyl-43-[2-(oxetan-3-yloxy)ethoxy]-67,68-dioxa-57-azatricyclohexatriaconta-23,25,27(48),28(49)-tetraene-50,51,52,53,54-pentone]	–	reduction in pS6K1; also recorded: moderate concentration dependent inhibition	did not reduce	0.1 to 1	Yes
CO[C@@H]1C[C@H](C[C@@H](C)[C@@H]2CC(=O)[C@H](C)/C=C(\C)[C@@H](O)[C@@H](OC)C(=O)[C@H](C)C[C@H](C)/C=C/C=C/C=C(\C)[C@@H](OCCS(=O)(=O)CCS(=O)(=O)CCO)C[C@@H]3CC[C@@H](C)[C@@](O)(O3)C(=O)C(=O)N3CCCC[C@H]3C(=O)O2)CC[C@H]1O [Example I-65, (21E,23E,25E,26E,34R,35S,36R,37R,39S,41S,43S,44S,45R,46R,55R)-45,55-dihydroxy-43-[2-[2-(2-hydroxyethylsulfonyl)ethylsulfonyl]ethoxy]-44-[(1R)-2-[(1S,3R,4R)-4-hydroxy-3-methoxy-cyclohexyl]-1-methyl-ethyl]-46-methoxy-34,35,36,37,47,48-hexamethyl-70,71-dioxa-56-azatricyclohexatriaconta-21,23,25(47),26(48)-tetraene-49,50,51,52,53-pentone]	–	strong inhibition	–	–	–
